These are literature values, as cited in patent US8097457B2, “Liquid crystalline substrates for culturing cells” (Wisconsin Alumni Research Foundation, priority 2005, dated 2012).

The structures appear in SMILES notation.

For this data set, the system named is live cells. The conditions noted are these: contacted with live cells for short periods of time.

Turning to `CCCCCc1ccc(-c2ccc(C#N)cc2)cc1` [5CB, 4′-pentyl-4-cyanobiphenyl], the “toxicity to live cells” value is listed as “cause cell death”.
